# Like-named read-outs stand apart in the source and are kept apart here.
# What was measured:
# [1] = cited from earlier work
# [2] = tested on: Dark adaptation abnormalities; conditions: Sorsby's fundus dystrophy patients, high dose oral, for as little as 1 week; cited from earlier work
# [3] = chronic high dose oral (liver damage, osteoporosis, promotion of lung cancer in smokers); cited from earlier work
# Dark adaptation = conditions: for Night driving ability: one week later
# Protocol: A patient complains of difficulty driving at night, especially in going from a well-lit to a poorly-illuminated environment. […] One cc of Vitamin A and/or one of its visual pigment derivatives in a sustained release suspension is injected retrobulbarly on both sides. […] Six months later, the retrobulbar injections are repeated.
# A patient complains of difficulty driving at night, especially in going from a well-lit to a poorly-illuminated environment. […] The patient has a cataract in the right eye and cataract surgery with an intraocular lens is performed. At the time of surgery, a small pellet of concentrated vitamin A and/or one of its visual pigment derivatives is placed in the eye for sustained release.
smiles,measurement,setting,value
CC1=C(/C=C/C(C)=C/C=C/C(C)=C/C=O)C(C)(C)CCC1 [retinal],Shielding from oxygen by BCD inclusion complex,"[1]; beta cyclodextrin inclusion complex (Lerner et al., 1989)",can shield retinal from oxygen
"CC1=C(/C=C/C(C)=C/C=C/C(C)=C/CO)C(C)(C)CCC1 [Vitamin A, (2E,4E,6E,8E)-3,7-dimethyl-9-(2,6,-trimethylcyclohex-1-en-1-yl)nona-2,4,6,8-tetraen-1-ol]",Dark adaptation abnormalities,[2],rapidly normalize
same,Systemic toxicity,[3],associated systemic toxicity
same,Night driving ability,"Dark adaptation; Example 1: patient, one cc sustained release suspension retrobulbarly on both sides",drives without difficulty at night
same,Night driving ability,"Dark adaptation; Example 2: patient, small sustained release pellet placed in the eye at cataract surgery",drives without difficulty at night
same,Duration of delivery in effective concentrations to the retina,"Dark adaptation; human, in vivo",0.5-3 years
"CC1=C(/C=C/C(C)=C/C=C/C(C)=C/C(=O)O)C(C)(C)CCC1 [all-trans-retinoic acid, retinoic acid]",Photostability with BCD inclusion complex,"[1]; beta cyclodextrin inclusion complex formation (Lin et al., 2000)",increase the photostability

# Reference: patent US20080275133A1, “Local Administration of Retinoids to Treat Deficiencies in Dark Adaptation” (University Of Calfornia-San Francisco, priority 2004, published 2008)
